Measurements as given in US20140121278A1, “ANTI-TUMOR AGENT OTX-008 TARGETS HUMAN GALECTIN-1” (REGENTS OF THE UNIVERSITY OF MINNESOTA, priority 2012, published 2014).
Read-outs that look alike come from different tables or passages of the source.

Assays:
human galectin-1 (gal-1) = biological target: T1, human galectin-1 (gal-1) (Homo sapiens, UniProt P09382); assay: 1H-15N HSQC NMR binding of OTX-008 to 15N-labeled gal-1; conditions: total gal-1 monomer 60 μM, pH 7.0, 30° C., HSQC intensity changes averaged over all resonances; read-out: Kd, estimate from mid-point of saturable binding curve (free OTX-008 at 50% intensity change)
T1 construct: made in house; host or cells: E. coli BL21 (DE3)
T1 sequence (P09382 whole entry): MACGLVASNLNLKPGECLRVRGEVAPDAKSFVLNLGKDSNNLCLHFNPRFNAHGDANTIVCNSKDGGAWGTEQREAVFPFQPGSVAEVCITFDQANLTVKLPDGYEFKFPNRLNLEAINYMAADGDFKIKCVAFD
Procedure: Galectin-1 preparation. […] Typically, 44 milligrams of purified protein were obtained from 1 liter of cell culture. The purity of the final sample was quantified by using the Biorad protein assay and was checked for purity by using SDS PAGE. Functional activity of the purified protein was assessed by a T-cell death assay (Nesmelova et al., 2008, Biomol NAR Assignments; 2(2):203-205).
Heteronuclear NMR Spectroscopy. […]
NMR experiments were carried out at 30° C. on a Varian Unity Inova 600-MHz spectrometer equipped with an H/C/N triple-resonance probe and x/y/z triple-axis pulse field gradient unit. […] Raw data were converted and processed by using NMRPipe (Delaglio et al., 1995, J Biomol NMR; 6(3):277-293) and were analyzed by using NMRview (Johnson, 2004, Methods Mol Biol; 278:313-352).
Although an accurate equilibrium ligand dissociation constant, Kd cannot always be determined from data such as these, a plot of OTX-008-induced intensity changes averaged over all resonances vs. the concentration of OTX-008 does yield a saturable binding curve (inset of FIG. 2). […]

human cancer cell lines = assay: Cell viability assay (MTT); assay type: cell-based; conditions: 72 h drug exposure, 48 h wash-out
From the text: FIGS. 8A-8C illustrate the concentration of OTX-008 (“0118”) required for inhibiting cell viability is proportional to Gal-1 expression. FIG. 8A illustrates the anti-viability effects (expressed as % change in cell numbers over time) of OTX-008 using the MTT assay in human cancer cell lines. FIG. 8B illustrates cancer cells that are sensitive to OTX-008 expressed […] galectin-1 protein expression as determined using Western Blot analysis. FIG. 8C illustrates that concentration of OTX-008, as established by plotting the IC50 in cancer cells, is proportional to their relative LGALS1 mRNA expression as assessed by qRT-PCR.
Cell lines. HEP2, SQ20B, HT29, DU145, and SKHEP1 cells were obtained from the ATCC (Rockville, Md., USA). COL0205-S cells were obtained from the National Cancer Institute collection. […]
Cell viability assay. Cell viability (i.e. cell proliferation and/or cytotoxicity) was determined using the MTT assay (3-[4,5-dimethylthiazol-2-yl]-2,5-diphenyltetrazolium bromide; Sigma, Saint-Quentin Fallavier, France). […] After incubation, the supernatant was discarded, insoluble formazan precipitates were dissolved in 0.1 mL of DMSO and the absorbance was measured at 560 nm by use of a microplate reader (Thermo, France). […] IC50 was determined as half the maximal inhibitory drug concentration for each cell line.

[1] = biological target: T2, gal-1 binding to cell surface glycans on splenocytes (CD4+ and CD8+ leukocytes, CD31+ endothelial cells) (Homo sapiens, UniProt P09382); assay: Flow cytometry: FITC-gal-1 binding to cell surface glycans on splenocytes; assay type: cell-based, gal-1 null mice; conditions: for inhibition at 20 µM: 20 μM OTX-008, 0.1 μM gal-1; for inhibition at 100 µM: 100 μM OTX-008
T2 construct: made in house; host or cells: E. coli BL21 (DE3) (the only gal-1 preparation described)
T2 sequence (P09382 whole entry): as above
Procedure: FIGS. 6A and 6B depict the results of flow cytometry used to assess the effects of OTX-008 (“0118”) on FITC-gal-1 binding to splenocytes (CD4+ and CD8+ leukocytes and CD31+ endothelial cells). FIG. 6A illustrates the binding of FITC-gal-1 (0.1 μM or 0.2 μM) to these cells as a function of OTX-008 concentration. FIG. 6B illustrates the binding to CD4+ and CD8+ leukocytes and CD31+ endothelial cells derived from male or female gal-1−/− null mice. FITC-Galectin-1 preparation. Gal-1 was conjugated with fluorescein isothiocyanate (FITC) using a FITC:protein molar ratio of 10:1. Gal-1 (2 mg/ml) was dissolved in […] of 20 mM potassium phosphate buffer, pH 7.4, followed by addition of approximately 50 μL FITC (10 mg/ml) that had been dissolved in 0.1 mM sodium bicarbonate. The resulting lower pH (approximately pH 8) ensured selective labeling at the N-terminal amine group of the protein (Hungerford et al., 2007, Photochem Photobiol Sci; 6(2):152-158; and Hermanson, 2008, Bioconjugate Techniques, 2nd ed.; Academic Press: Burlington, Mass. Part 1, 1202 pp). This solution was then mixed thoroughly and incubated at room temperature (22° C.) for 18 hours in the dark. During the course of the reaction, the mixture was gently vortexed 3 or 4 times. The resulting FITC-labeled protein was separated from unbound dye by filtration using an Amicon Ultra cellulose filter (Millipore, 10 kDa cut-off). […] Flow Cytometry. Male and female gal-1 null mice (Jackson Laboratory) were provided water and standard chow ad libitum and were maintained on a 12-hour light/dark cycle prior to experiments that were approved by the University of Minnesota Research Animal Resources Ethical Committee. For FACS experiments, spleens from these mice (6-10 weeks old) were harvested and non-enzymatically disrupted by shear force to yield single-cell suspensions (Dings et al., 2011, Clin Cancer Res; 17(10):3134-3145). Cell suspensions were prepared in Hanks's balanced solution. Red blood cells were lysed in ACK (Lonza Walkersville) for 5 minutes on ice and suspensions were filtered through nylon mesh. Spleen cells were then washed and incubated with monoclonal antibodies as indicated for 40 minutes on ice. After an additional washing step, various concentrations of gal-1 (with or without OTX-008) were added and incubated for 30 minutes on ice. Prior to FACS analysis, cell suspensions were washed once more and analyzed by multi-parameter flow cytometry on a LSR II flow cytometer (BD Biosciences) using Flowjo software (Tree Star, Inc.) (Dings et al., 2011, Clin Cancer Res; 17(10):3134-3145).

Jurkat E6.1 cells = assay: Agglutination assay, gal-1 induced; assay type: cell-based; conditions: Homo sapiens, 20 μM OTX-008, 1 μM gal-1, 22° C., read-out: inhibition of cell agglutination
Procedure: FIG. 7 depicts Jurkat E6.1 cells agglutination as induced by addition of 1 μM gal-1 and incubated at 22° C. on plastic, round bottom chamber slides (Nunc, Naperville, Ill., USA), in medium alone or in the presence of 20 μM OTX-008 (“0118”).
Agglutination Assay. Jurkat E6.1 cells (2×10^6/200 μL RPMI 1640 medium) agglutination was induced by 1 μM gal-1 and were incubated on plastic round bottom chamber slides (Nunc, Naperville, Ill., USA) in medium alone or with 20 μM OTX-008 at 22° C. Subsequently the cells were analyzed for agglutination with an Axiovert 10 inverted phase microscope equipped with a digital camera system (Zeiss, Germany), and digitally analyzed and differentially quantified by morphometric analysis, as described earlier (Dings et al., 2008, Cancer Lett; 265(2):270-280; and Dings et al., 2010, Bioconjugate Chem; 21(1):20-27).

[2] = Phase I clinical trial with terminal cancer patients; assay type: in vivo, human; conditions: preliminary, daily subcutaneous injection, 1 mg/Kg
From the text: In an embodiment, OTX-008 is a therapeutic agent for use against cancer. As a therapeutic agent, calixarene OTX-008 is a significant improvement over both Anginex and 6DBF7, as well as over any carbohydrate-based compound, for multiple reasons. OTX-008 (937 Da) approaches the generally accepted definition of a “small molecule” (i.e. <500 Da). OTX-008 should have better in vivo exposure, because it is non-peptidic and non-carbohydrate, and therefore is non-hydrolyzable. Moreover, because of its aryl-crown structure, OTX-008 should be chemically stable and less likely to be metabolized in vivo than any peptide or carbohydrate-based compound. […] In an embodiment, OTX-008 is a promising anti-tumor agent that targets galectin-1 as a first-in-class therapeutic agent.

[3] = read-out: inhibition of gal-1 binding to CD4+ (or CD8+) cells
[4] = read-out: inhibition of gal-1 binding to CD31+ cells

Kd (human galectin-1 (gal-1)): ~30 µM
inhibition at 20 µM [1, 3]: ~80%
inhibition at 20 µM [1, 4]: ~50%
inhibition at 100 µM [1, 3]: 100%
inhibition at 100 µM [1, 4]: ~70%
half-life ([2]; human, in vivo, sc): ~48 h
Structure (SMILES): CN(C)CCNC(=O)COc1c2cccc1Cc1cccc(c1OCC(=O)NCCN(C)C)Cc1cccc(c1OCC(=O)NCCN(C)C)Cc1cccc(c1OCC(=O)NCCN(C)C)C2 [OTX-008]
inhibition of cell viability on several cell types in culture (human cancer cell lines): dose-dependent
inhibition at 20 µM (Jurkat E6.1 cells): ~80%
disease state [2]: apparent stabilization of disease state
toxicity [2]: absence of toxicity
